Results taken from article PMC7486275 (Nature, 2020).
Like-named read-outs stand apart in the source and are kept apart here. Peptide text beside a SMILES is read from it. * marks the point of attachment. Cbz = O=C(OCc1ccccc1)*

Columns and labels:
CDK12-cycK and DDB1 = CDK12-cycK and DDB1 (Homo sapiens, UniProt Q16531+Q9NYV4, K965R); test: TR-FRET titration of CDK12-Alexa488cycK to terbiumDDB1; conditions: vs basal binding in DMSO
[1] = target: CDK12-cycK complex by RBX1N8CUL4-DDB1 (Homo sapiens, UniProt Q16531+Q9NYV4, K965R); test: In vitro ubiquitination assay; type: biochemical; conditions: 2 μM compound
[2] = target: cycKeGFP in HEK293TCas9 cells (Homo sapiens, UniProt Q16531+Q9NYV4); type: cell-based
[3] = system: CycK in HEK293TCas9 cells; test: Immunoblots of CycK degradation; type: cell-based, human; conditions: pre-treated with 0.5 μM MLN7243, 1 μM MLN4924 or 10 μM MG132 for 4 hours, then 1 μM CR8 for 2 hours
HEK293TCas9 cells = conditions: 3 days
[4] = system: K562Cas9, OVK16Cas9, A564Cas9, ES2Cas9 and MOLM13Cas9 cell lines; test: Validation of drug-E3 ligase pairs; type: cell-based; conditions: flow-based validation, 3 days

Sequence of CDK12-cycK complex by RBX1N8CUL4-DDB1 (Q15843 1-76): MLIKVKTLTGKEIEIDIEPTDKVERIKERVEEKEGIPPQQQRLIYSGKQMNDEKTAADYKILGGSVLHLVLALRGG
Sequence of CDK12-cycK complex by RBX1N8CUL4-DDB1 (Q16531 whole entry): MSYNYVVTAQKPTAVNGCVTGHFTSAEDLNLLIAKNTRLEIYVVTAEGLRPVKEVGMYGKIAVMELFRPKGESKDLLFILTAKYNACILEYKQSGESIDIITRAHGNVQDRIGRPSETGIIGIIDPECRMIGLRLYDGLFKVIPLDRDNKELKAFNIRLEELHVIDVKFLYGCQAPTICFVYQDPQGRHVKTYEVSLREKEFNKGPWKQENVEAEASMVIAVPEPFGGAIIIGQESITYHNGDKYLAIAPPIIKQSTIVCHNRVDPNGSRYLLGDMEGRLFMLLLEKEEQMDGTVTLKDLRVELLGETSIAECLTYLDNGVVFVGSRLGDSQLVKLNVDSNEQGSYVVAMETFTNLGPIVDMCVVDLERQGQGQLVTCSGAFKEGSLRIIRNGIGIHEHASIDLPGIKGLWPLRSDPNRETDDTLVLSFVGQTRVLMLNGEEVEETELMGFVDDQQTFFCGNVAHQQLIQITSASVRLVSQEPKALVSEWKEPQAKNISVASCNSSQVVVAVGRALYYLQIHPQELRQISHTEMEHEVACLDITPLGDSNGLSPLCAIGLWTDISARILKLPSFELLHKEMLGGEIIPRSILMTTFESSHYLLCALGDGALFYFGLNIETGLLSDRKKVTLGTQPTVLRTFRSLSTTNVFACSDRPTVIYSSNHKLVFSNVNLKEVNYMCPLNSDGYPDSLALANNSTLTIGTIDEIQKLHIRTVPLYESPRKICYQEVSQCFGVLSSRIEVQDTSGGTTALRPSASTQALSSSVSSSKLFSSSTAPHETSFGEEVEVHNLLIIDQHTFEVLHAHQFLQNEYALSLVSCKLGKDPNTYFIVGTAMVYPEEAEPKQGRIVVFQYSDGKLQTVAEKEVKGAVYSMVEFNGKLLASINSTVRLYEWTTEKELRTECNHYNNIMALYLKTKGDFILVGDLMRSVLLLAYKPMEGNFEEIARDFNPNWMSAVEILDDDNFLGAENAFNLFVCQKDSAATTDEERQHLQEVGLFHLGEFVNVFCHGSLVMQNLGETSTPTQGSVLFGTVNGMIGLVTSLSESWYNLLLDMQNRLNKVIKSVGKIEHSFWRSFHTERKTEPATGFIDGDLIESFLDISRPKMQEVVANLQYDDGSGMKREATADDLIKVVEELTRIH
Sequence of CDK12-cycK complex by RBX1N8CUL4-DDB1 (Q9NYV4 713-1052 K965R): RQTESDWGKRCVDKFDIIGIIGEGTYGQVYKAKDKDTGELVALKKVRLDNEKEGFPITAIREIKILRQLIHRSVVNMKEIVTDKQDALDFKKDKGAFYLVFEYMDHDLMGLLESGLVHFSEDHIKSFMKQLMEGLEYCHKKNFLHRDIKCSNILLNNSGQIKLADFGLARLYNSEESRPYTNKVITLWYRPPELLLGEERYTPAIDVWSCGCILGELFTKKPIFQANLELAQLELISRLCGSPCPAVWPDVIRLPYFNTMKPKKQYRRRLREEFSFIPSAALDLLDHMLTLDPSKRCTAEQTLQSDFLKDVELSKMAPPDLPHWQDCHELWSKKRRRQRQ
Sequence of CDK12-cycK complex by RBX1N8CUL4-DDB1 (P62877 whole entry, further chain): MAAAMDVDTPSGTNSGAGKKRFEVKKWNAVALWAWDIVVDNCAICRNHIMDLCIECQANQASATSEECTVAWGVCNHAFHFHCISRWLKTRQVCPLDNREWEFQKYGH
Sequence of CDK12-cycK complex by RBX1N8CUL4-DDB1 (O75909 1-267, further chain): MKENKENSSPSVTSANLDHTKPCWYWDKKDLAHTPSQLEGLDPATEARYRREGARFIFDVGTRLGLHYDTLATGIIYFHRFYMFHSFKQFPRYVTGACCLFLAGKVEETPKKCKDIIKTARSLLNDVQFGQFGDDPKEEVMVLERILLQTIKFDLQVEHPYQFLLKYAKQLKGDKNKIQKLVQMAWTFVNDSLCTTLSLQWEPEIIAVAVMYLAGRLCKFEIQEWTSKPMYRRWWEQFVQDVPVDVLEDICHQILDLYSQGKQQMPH
Sequence of CDK12-cycK complex by RBX1N8CUL4-DDB1 (Q13619 whole entry, further chain): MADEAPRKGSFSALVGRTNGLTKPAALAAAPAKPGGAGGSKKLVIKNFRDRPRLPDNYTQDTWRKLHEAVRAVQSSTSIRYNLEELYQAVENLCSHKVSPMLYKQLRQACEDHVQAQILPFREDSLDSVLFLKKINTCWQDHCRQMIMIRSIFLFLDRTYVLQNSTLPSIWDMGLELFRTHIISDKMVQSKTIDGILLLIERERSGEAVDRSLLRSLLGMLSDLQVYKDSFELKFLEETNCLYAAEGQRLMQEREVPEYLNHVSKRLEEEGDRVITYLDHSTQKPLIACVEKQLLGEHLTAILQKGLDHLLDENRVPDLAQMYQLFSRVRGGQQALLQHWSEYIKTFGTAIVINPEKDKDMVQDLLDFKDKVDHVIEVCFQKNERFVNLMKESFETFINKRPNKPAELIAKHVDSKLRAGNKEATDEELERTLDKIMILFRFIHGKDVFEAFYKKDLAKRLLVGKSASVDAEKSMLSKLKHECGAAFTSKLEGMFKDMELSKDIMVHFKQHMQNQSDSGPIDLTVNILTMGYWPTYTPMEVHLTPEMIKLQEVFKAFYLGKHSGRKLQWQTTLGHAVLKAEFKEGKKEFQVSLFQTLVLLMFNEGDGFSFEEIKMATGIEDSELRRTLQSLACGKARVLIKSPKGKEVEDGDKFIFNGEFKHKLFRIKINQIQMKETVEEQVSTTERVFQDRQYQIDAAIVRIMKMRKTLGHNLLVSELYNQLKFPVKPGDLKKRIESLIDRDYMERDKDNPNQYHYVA
Sequence of CDK12-cycK and DDB1 (Q9NYV4 713-1052 K965R): as the sequence (Q9NYV4 713-1052 K965R) above
Sequence of CDK12-cycK and DDB1 (O75909 1-267, further chain): as the sequence (O75909 1-267, further chain) above
Sequence of CDK12-cycK and DDB1 (Q16531 whole entry): as the sequence (Q16531 whole entry) above

| Compound | effect on CDK12-cycK interaction with DDB1 (TR-FRET signal) (CDK12-cycK and DDB1) | cycK ubiquitination in vitro [1] | rescue of CR8-induced cycK degradation [3] | other results |
| --- | --- | --- | --- | --- |
| Nc1ncnc2c1ncn2[C@@H]1O[C@H](COP(=O)(O)OP(=O)(O)OP(=O)(O)O)[C@@H](O)[C@H]1O [ATP] | neither facilitated nor abrogated the interaction | – | – | – |
| CN1CC[C@H](c2c(O)cc(O)c3c(=O)cc(-c4ccccc4Cl)oc23)[C@H](O)C1 [Flavopiridol] | stimulated the binding of CDK12-cycK to DDB1 | moderate cycK ubiquitination | – | degradation of the cycKeGFP reporter in cells ([2]; HEK293TCas9 cells, 1 μM compound, 2 hours): failed to degrade cycK in cells |
| CC(C)C[C@@H](C=O)NC(=O)[C@H](CC(C)C)NC(=O)[C@H](CC(C)C)NC(=O)OCc1ccccc1 [MG132] (Cbz-Leu-Leu-Leu-aldehyde) | – | – | rescued | – |
| NS(=O)(=O)OC[C@@H]1C[C@@H](n2ccc3c(N[C@H]4CCc5ccccc54)ncnc32)C[C@@H]1O [MLN4924] | – | – | rescued | effect on cell viability (HEK293TCas9 cells): only minor effects on cell viability |
| NS(=O)(=O)OC[C@H]1C[C@@H](Nc2ccnc3cc(-c4cccc(SC(F)(F)F)c4)nn23)[C@H](O)[C@@H]1O [MLN7243] | – | – | rescued | – |
| CC[C@H](CO)Nc1nc(NCc2ccccc2)c2ncn(C(C)C)c2n1 [Roscovitine] | – | less processive ubiquitination | – | degradation of the cycKeGFP reporter in cells [2]: neither DRF053 nor roscovitine induced degradation |
| CN(C)C/C=C/C(=O)Nc1ccc(C(=O)N2CCC[C@@H](Nc3ncc(Cl)c(-c4c[nH]c5ccccc45)n3)C2)cc1 [THZ531] | further decreased the TR-FRET signal | diminished cycK ubiquitination in vitro below DMSO control levels | – | – |
| NS(=O)(=O)c1ccc(S(=O)(=O)Nc2cccc3c(Cl)c[nH]c23)cc1 [indisulam] | – | – | – | effect of sgRNAs targeting DCAF15 on drug-induced toxicity [4]: confer resistance |
| O=C(NS(=O)(=O)c1ccc(Br)s1)c1ccc(Cl)cc1Cl [tasisulam] | – | – | – | effect of sgRNAs targeting DCAF15 on drug-induced toxicity [4]: confer resistance |
